The source of these data is article PMC7605213 (Journal of medicinal chemistry, 2020).

In one data set the test system is malaria infection. The conditions noted are these: 100 mg/kg twice daily p.o. ref 33; cited from earlier work.
The conditions of data set [1]: mouse liver microsomes, 15, 30 and 60 min, tentative assignment. A general note: Microsomes from liver hold many membrane-bound enzymes, among them those of drug oxidation.
The conditions of data set [2]: mouse liver microsomes; values reported from the initial study ref 33; cited from earlier work.

The structures appear in SMILES notation. Marks after values point to notes of the source that are not given here.

For the compound `CCN(CC)CCCC(C)Nc1cc(/C=C/c2ccc([N+](=O)[O-])cc2)nc2ccc(OC)cc12` (stereo not drawn) [UCF501], the “mice cured of malaria infection” value in the data set on malaria infection was 4/5. For the same compound, the “metabolites / metabolic pathway identified by LC–MS” value in data set [1] was “N-deethylation of the tertiary amine (monodeethyl UCF501 and UCF501-M1), O-demethylation (UCF501-M2), oxidation of styrylquinoline (UCF501-M3), and the reduction of the nitro group”. Further, the “% remaining after 60 min” value in data set [2] is listed as 47.8^a %.
